The values that follow come from patent US7825256B2, “Inducible nitric oxide synthase dimerization inhibitors” (Kalypsys, Inc., priority 2004, dated 2010).

In this assay the target is T1, hiNOS (Homo sapiens, UniProt P35228).
T1 construct: expressed in transfected cells; host or cells: HEK293
Put plainly: DAN assay, hiNOS expressed in transiently transfected HEK293 cells. In kind it is cell-based. To be noted: HEK293 cells transiently transfected with hiNOS. From the text:
The source of nitric oxide synthase (NOS) enzyme can be generated in several ways including induction of endogenous iNOS using cytokines and/or lipopolysaccharide (LPS) in various cell types known in the art. Alternatively, the gene encoding the enzyme can be cloned and the enzyme can be generated in cells via heterologous expression from a transient or stable expression plasmid with suitable features for protein expression as are known in the art. Enzymatic activity (nitric oxide production) is calcium independent for iNOS, while the constitutive NOS isoforms, nNOS and eNOS, become active with the addition of various cofactors added to cellular media or extract as are well known in the art. Enzymes specified in Table 1 were expressed in HEK293 cells transiently transfected with the indicated NOS isoform.
A major metabolic pathway for nitric oxide is to nitrate and nitrite, which are stable metabolites within tissue culture, tissue, plasma, and urine (S Moncada, A Higgs, N Eng J Med 329, 2002 (1993)).
The level of nitrate or nitrite in the specimen can be quantified by any method known in the art which provides adequate sensitivity and reproducibility. A variety of protocols have also been described for detecting and quantifying nitrite and nitrate levels in biological fluids by ion chromatography (e.g., S A Everett et al., J. Chromatogr. 706, 437 (1995); J M Monaghan et al., J. Chromatogr. 770, 143 (1997)), high-performance liquid chromatography (e.g., M Kelm et al., Cardiovasc. Res. 41, 765 (1999)), and capillary electrophoresis (M A Friedberg et al., J. Chromatogr. 781, 491 (1997)). For example, 2,3-diaminonaphthalene reacts with the nitrosonium cation that forms spontaneously from NO to form the fluorescent product […]. Using 2,3-diaminonaphthalene (“DAN”), researchers have developed a rapid, quantitative fluorometric assay that can detect from 10 nM to 10 μM nitrite and is compatible with a multi-well microplate format. […] DAN reacts with nitrite ion and gives fluorescent […] (M C Carré et al., Analysis 27, 835-838 (1999)). Table 1 provides the test results of various compounds of the subject invention using the DAN assay.
A specimen can be processed prior to determination of nitrate or nitrite as required by the quantification method, or in order to improve the results, or for the convenience of the investigator. For example, processing can involve centrifuging, filtering, or homogenizing the sample. If the sample is whole blood, the blood can be centrifuged to remove cells and the nitrate or nitrite assay performed on the plasma or serum fraction. If the sample is tissue, the tissue can be dispersed or homogenized by any method known in the art prior to determination of nitrate or nitrite. It may be preferable to remove cells and other debris by centrifugation or another method and to determine the nitrate or nitrite level using only the fluid portion of the sample, or the extracellular fluid fraction of the sample. The sample can also be preserved for later determination, for example by freezing of urine or plasma samples. When appropriate, additives may be introduced into the specimen to preserve or improve its characteristics for use in the nitrate or nitrite assay.
The “level” of nitrate, nitrite, or other NO-related product usually refers to the concentration (in moles per liter, micromoles per liter, or other suitable units) of nitrate or nitrite in the specimen, or in the fluid portion of the specimen. However, other units of measure can also be used to express the level of nitrate or nitrite. For example, an absolute amount (in micrograms, milligrams, nanomoles, moles, or other suitable units) can be used, particularly if the amount refers back to a constant amount (e.g., grams, kilograms, milliliters, liters, or other suitable units) of the specimens under consideration. A number of commercially available kits can be used.

The term EC50 denotes the midpoint of the concentration-response curve.

Counter-ions that a name gives are not always drawn.

`CC(NCCNCc1ccc2c(c1)OCO2)c1nc(-n2ccnc2)ns1` (stereo not shown) [Example 64, N-Benzo[1,3]dioxol-5-ylmethyl-N′-[1-(3-imidazol-1-yl-[1,2,4]thiadiazol-5-yl)-ethyl]-ethane-1,2-diamine] yielded an EC50 of less than 1 µM.
Molecule `CC(NCCOCc1ccc2c(c1)OCO2)c1nc(-n2ccnc2)ns1` (stereo not shown) [Example 65, [2-(Benzo[1,3]dioxol-5-ylmethoxy)-ethyl]-[1-(3-imidazol-1-yl-[1,2,4]thiadiazol-5-yl)-ethyl]-amine] showed an EC50 of less than 1 µM.
For the molecule `Cc1cc(C(C)(C)C(=O)NCCNCc2ccc3c(c2)OCO3)nc(-n2ccnc2)n1` [Example 66, N-{2-[(Benzo[1,3]dioxol-5-ylmethyl)-amino]-ethyl}-2-(2-imidazol-1-yl-6-methyl-pyrimidin-4-yl)-isobutyramide], the EC50 was less than 1 µM.
Molecule `CCOC(=O)C(CC(=O)NCCc1ccc2c(c1)OCO2)c1nc(-n2ccnc2)ns1` (stereo not shown) [Example 67, N-(2-Benzo[1,3]dioxol-5-yl-ethyl)-2-(3-imidazol-1-yl-[2,4]thiadiazol-5-yl)-succinamic acid ethyl ester] returned an EC50 of less than 1 µM.
With `CC(NCCNCc1ccc2c(c1)OCO2)c1csc(-n2ccnc2)n1` (stereo not shown) [Example 68, N-Benzo[1,3]dioxol-5-ylmethyl-N′-[1-(2-imidazol-1-yl-thiazol-4-yl)-ethyl]-ethane-1,2-diamine], the EC50 was less than 1 µM.
The result for `CCOC(=O)CN(Cc1cc(C)nc(-n2ccnc2)n1)C(=O)NCCc1ccc2c(c1)OCO2` [Example 69, [3-(2-Benzo[1,3]dioxol-5-yl-ethyl)-1-(2-imidazol-1-yl-6-methyl-pyrimidin-4-ylmethyl)-ureido]-acetic acid ethyl ester] reads less than 1 µM; that for `Cc1cc(CN(CC(N)=O)C(=O)NCCc2ccc3c(c2)OCO3)nc(-n2ccnc2)n1` [Example 70, (2-[3-(2-Benzo[1,3]dioxol-5-yl-ethyl)-1-(2-imidazol-1-yl-6-methyl-pyrimidin-4-ylmethyl)-ureido]-acetamide)], less than 1 µM; that for `Cc1cc(CNS(=O)(=O)NCCc2ccc3c(c2)OCO3)nc(-n2ccnc2)n1` [Example 71], less than 50 µM.
Regarding `Cc1cc(C(C)(C)C(=O)NCCCc2ccc3c(c2)OCO3)nc(-n2ccnc2)n1` [Example 72, 2-(2-(1H-imidazol-1-yl)-6-methylpyrimidin-4-yl)-N-(3-(benzo[d][1,3]dioxol-5-yl)propyl)-2-methylpropanamide], the EC50 is less than 50 µM.
In turn, `Cc1cc(C(C)(C)/C=C/C(=O)NCc2ccc3c(c2)OCO3)nc(-n2ccnc2)n1` [Example 74, (E)-4-(2-(1H-Imidazol-1-yl)-6-methylpyrimidin-4-yl)-N-(benzo[d][1,3]dioxol-5-ylmethyl)-4-methylpent-2-enamide] displayed an EC50 of less than 50 µM.
In turn, `Cc1cc(C(C)(C)CCC(=O)NCc2ccc3c(c2)OCO3)nc(-n2ccnc2)n1` [Example 75, 4-(2-(1H-Imidazol-1-yl)-6-methylpyrimidin-4-yl)-N-(benzo[d][1,3]dioxol-5-ylmethyl)-4-methylpentanamide] registered an EC50 of less than 1 µM.
Then `Cc1cc(C(C)(C)CCCNCc2ccc3c(c2)OCO3)nc(-n2ccnc2)n1` [Example 76, 4-(2-(1H-Imidazol-1-yl)-6-methylpyrimidin-4-yl)-N-(benzo[d][1,3]dioxol-5-ylmethyl)-4-methylpentan-1-amine], with less than 1 µM.
`Cc1cc(C(C)(C)NCCNCc2ccc3c(c2)OCO3)nc(-n2ccnc2)n1` [Example 77, N-1-(2-(2-(1H-Imidazol-1-yl)-6-methylpyrimidin-4-yl)propan-2-yl)-N-2-(benzo[d][1,3]dioxol-5-ylmethyl)ethane-1,2-diamine hydrochloride] registered a half-maximal effective concentration (EC50) of less than 1 µM.
The result for `Cc1cc(C(C)(C)CNCCCc2ccc3c(c2)OCO3)nc(-n2ccnc2)n1` [Example 78, (3-Benzo[1,3]dioxol-5-yl-propyl)-{2-[2-(2H-imidazol-1-yl)-6-methyl-pyrimidin-4-yl]-2-methyl-propyl}-amine hydrochloride] reads less than 1 µM.
In turn, `CN(CCCN(C)c1nc(-n2ccnc2)ns1)Cc1ccc2c(c1)OCO2` [Example 79, N-Benzo[1,3]dioxol-5-ylmethyl-N′-(3-imidazol-1-yl-[1,2,4]thiadiazol-5-yl)-N,N′-dimethyl-propane-1,3-diamine] showed an EC50 of less than 1 µM.
The molecule `CN(CCCN(Cc1ccc2c(c1)OCO2)C(=O)OC(C)(C)C)c1nc(-n2cnc(I)c2)ns1` [Example 80] came in with an EC50 of more than 50 µM.
The result for `CN(CCCNCc1ccc2c(c1)OCO2)c1nc(-n2cnc(I)c2)ns1` [Example 81, N′-Benzo[1,3]dioxol-5-ylmethyl-N-[3-(4-iodo-imidazol-1-yl)-[1,2,4]thiadiazol-5-yl]-N-methyl-propane-1,3-diamine] reads more than 50 µM.
For the molecule `CN(CCCN(C)c1nc(-n2ccnc2)ns1)Cc1ccc2c(c1)OCCO2` [Example 82, N-(2,3-Dihydro-benzo[1,4]dioxin-6-ylmethyl)-N′-(3-imidazol-1-yl-[1,2,4]thiadiazol-5-yl)-N,N′-dimethyl-propane-1,3-diamine], the EC50 was less than 1 µM.
The result for `CN(CCNCCc1ccc2c(c1)OCCO2)c1nc(-n2ccnc2)ns1` [Example 83, N′-[2-(2,3-Dihydro-benzo[1,4]dioxin-6-yl)-ethyl]-N-(3-imidazol-1-yl-[1,2,4]thiadiazol-5-yl)-N-methyl-ethane-1,2-diamine] reads less than 1 µM; that for `CN(CCc1ccc2c(c1)OCCO2)CCN(C)c1nc(-n2ccnc2)ns1` [Example 84, N-[2-(2,3-Dihydro-benzo[1,4]dioxin-6-yl)-ethyl]-N′-(3-imidazol-1-yl-[1,2,4]thiadiazol-5-yl)-N,N′-dimethyl-ethane-1,2-diamine], less than 1 µM; that for `CN(CCCNCCc1ccc2c(c1)OCCO2)c1nc(-n2ccnc2)ns1` [Example 85, N′-[2-(2,3-Dihydro-benzo[1,4]dioxin-6-yl)-ethyl]-N-(3-imidazol-1-yl-[1,2,4]thiadiazol-5-yl)-N-methyl-propane-1,3-diamine], less than 1 µM.
The result for `CN(CCCN(C)c1nc(-n2ccnc2)ns1)CCc1ccc2c(c1)OCCO2` [Example 86, N-[2-(2,3-Dihydro-benzo[1,4]dioxin-6-yl)-ethyl]-N′-(3-imidazol-1-yl-[1,2,4]thiadiazol-5-yl)-N,N′-dimethyl-propane-1,3-diamine] reads less than 1 µM; that for `CN(CCCNCCc1ccc2c(c1)OCO2)c1nc(-n2ccnc2)ns1` [Example 87, N′-(2-Benzo[1,3]dioxol-5-ethyl)-N-(3-imidazol-1-yl-[1,2,4]thiadiazol-5-yl)-N-methyl-propane-1,3-diamine], less than 1 µM; that for `CN(CCCN(C)c1nc(-n2ccnc2)ns1)CCc1ccc2c(c1)OCO2` [Example 88, N-(2-Benzo[1,3]dioxol-5-yl-ethyl)-N′-(3-imidazol-1-yl-[1,2,4]thiadiazol-5-yl)-N,N′-dimethyl-propane-1,3-diamine], less than 1 µM.
`CN(CCN1CCCC1c1nc(-n2ccnc2)ns1)Cc1ccc2c(c1)OCO2` (stereo not shown) [Example 89, Benzo[1,3]dioxol-5-ylmethyl-{2-[2-(3-imidazol-1-yl-[1,2,4]thiadiazol-5-yl)-pyrrolidin-1-yl]-ethyl}-methyl-amine] returned an EC50 of less than 1 µM.
